{"source": "patent US8618138B2", "about": "“Indole amide derivatives and related compounds for use in the treatment of neurodegenerative diseases” (Katholieke Universiteit Leuven, K.U. Leuven R&D, priority 2009, dated 2013)"}
{"tested_on": "M17-TAU P301L cells", "test": "TAU cytotoxicity assay: LDH leakage of retinoic acid incubated M17-TAU P301L cells", "format": "cell-based, human", "conditions": "Homo sapiens, 168 h, reduction of LDH activity of retinoic acid incubated M17-TAU P301L cells, 7 days", "method_in_brief": "(§1)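 M17 neuroblastoma cells stably expressing human TAU P301L, seeded at 2500 cells/cm2 in Optimem with 1% FCS, then given 2.5 μM retinoic acid (stock before 1:1 addition) and grown 7 days at 37 °C. Cytotoxicity read as LDH leaked into medium; EC50 derived from these measurements.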", "units": {"EC50": "nM"}}
{"smiles": "COc1cccc(Cc2cc(C(=O)NCCc3c[nH]c4ccc(Cl)cc34)no2)c1", "note": "[Example D1, N-(2-(5-chloro-1H-indol-3-yl)ethyl)-5-(3-methoxybenzyl)isoxazole-3-carboxamide]", "EC50": 2}
{"smiles": "CC(C)(C)OC(=O)Nc1cc(C(=O)NCCc2c[nH]c3ccc(Cl)cc23)no1", "note": "[Example D29, tert-butyl 3-(2-(5-chloro-1H-indol-3-yl)ethylcarbamoyl)isoxazol-5-ylcarbamate]", "EC50": 42}
{"smiles": "O=C(NCCCc1c[nH]c2ccc(Cl)cc12)c1cc(Cc2cccc(F)c2)on1", "note": "[Example D35, N-(3-(5-chloro-1H-indol-3-yl)propyl)-5-(3-fluorobenzyl)isoxazole-3-carboxamide]", "EC50": 60}
{"smiles": "Cn1cc(CCNC(=O)c2cc(Cc3cccc(F)c3)on2)c2cc(Cl)ccc21", "note": "[Example D51, N-(2-(5-chloro-1-methyl-1H-indol-3-yl)ethyl)-5-(3-fluorobenzyl)isoxazole-3-carboxamide]", "EC50": 157}
{"smiles": "Cc1ncoc1C(=O)NCCc1c[nH]c2ccc(Cl)cc12", "note": "[Example D112, N-(2-(5-chloro-1H-indol-3-yl)ethyl)-4-methyloxazole-5-carboxamide]", "EC50": 1250}
{"smiles": "CCOCc1cc(C(=O)NCCc2c[nH]c3ccc(Cl)cc23)no1", "note": "[Example D123, N-(2-(5-chloro-1H-indol-3-yl)ethyl)-5-(ethoxymethyl)isoxazole-3-carboxamide]", "EC50": 19}
{"smiles": "Cc1cc(C(=O)NCCc2c[nH]c3ccccc23)c(C)n1C1CC1", "note": "[Example D72, N-(2-(1H-indol-3-yl)ethyl)-1-cyclopropyl-2,5-dimethyl-1H-pyrrole-3-carboxamide]", "EC50": 453}
{"smiles": "COc1ccc2c(CCNC(=O)c3cc(Cc4cccc(F)c4)on3)c[nH]c2c1", "note": "[Example D74, 5-(3-fluorobenzyl)-N-(2-(6-methoxy-1H-indol-3-yl)ethyl)isoxazole-3-carboxamide]", "EC50": 534}
{"smiles": "O=C(NCCc1c[nH]c2ccc(Cl)cc12)c1noc(Cc2ccc(F)cc2F)n1", "note": "[Example D189, N-(2-(5-chloro-1H-indol-3-yl)ethyl)-5-(2,4-difluorobenzyl)-1,2,4-oxadiazole-3-carboxamide]", "EC50": 15}
{"smiles": "O=C(NCCc1c[nH]c2ccc(Cl)cc12)C1=N[C@@H](Cc2ccccc2)CO1", "note": "[Example D80, (S)-4-benzyl-N-(2-(5-chloro-1H-indol-3-yl)ethyl)-4,5-dihydrooxazole-2-carboxamide]", "EC50": 915}
{"smiles": "O=C(NCCc1c[nH]c2ccc(Cl)cc12)c1cc(Cc2cccc(F)c2F)on1", "note": "[Example D130, N-(2-(5-chloro-1H-indol-3-yl)ethyl)-5-(2,3-difluorobenzyl)isoxazole-3-carboxamide]", "EC50": 20}
{"smiles": "O=C(NCCc1c[nH]c2cc(F)ccc12)c1cc(Cc2cccc(F)c2)on1", "note": "[Example D47, N-(2-(6-fluoro-1H-indol-3-yl)ethyl)-5-(3-fluorobenzyl)isoxazole-3-carboxamide]", "EC50": 132}
{"smiles": "O=C(NCCc1c[nH]c2ncc(Cl)cc12)c1cc(Cc2cc(F)ccc2F)on1", "note": "[Example D128, N-(2-(5-chloro-1H-pyrrolo[2,3-b]pyridin-3-yl)ethyl)-5-(2,5-difluorobenzyl)isoxazole-3-carboxamide]", "EC50": 105}
{"smiles": "O=C(NCCc1c[nH]c2ccc(Cl)cc12)c1cc(Cc2cccc(C(F)(F)F)c2)on1", "note": "[Example D30, N-(2-(5-chloro-1H-indol-3-yl)ethyl)-5-(3-(trifluoromethyl)benzyl)isoxazole-3-carboxamide]", "EC50": 42}
{"smiles": "Cc1cccc(Cc2nc(C(=O)NCCc3c[nH]c4ccc(Cl)cc34)no2)c1", "note": "[Example D184, N-(2-(5-chloro-1H-indol-3-yl)ethyl)-5-(3-methylbenzyl)-1,2,4-oxadiazole-3-carboxamide]", "EC50": 26}
{"smiles": "O=C(NCCc1c[nH]c2ccc(Cl)cc12)c1cc(Cc2ccsc2)on1", "note": "[Example D25, N-(2-(5-chloro-1H-indol-3-yl)ethyl)-5-(thiophen-3-ylmethyl)isoxazole-3-carboxamide]", "EC50": 35}
{"smiles": "O=C(NCCc1c[nH]c2ccc(Cl)cc12)c1cc(Cc2ccoc2)on1", "note": "[Example D22, N-(2-(5-chloro-1H-indol-3-yl)ethyl)-5-(furan-3-ylmethyl)isoxazole-3-carboxamide]", "EC50": 28}
{"smiles": "Cc1ccc(Cc2cc(C(=O)NCCc3c[nH]c4ccc(Cl)cc34)no2)cc1", "note": "[Example D12, N-(2-(5-chloro-1H-indol-3-yl)ethyl)-5-(4-methylbenzyl)isoxazole-3-carboxamide]", "EC50": 17}
{"smiles": "COc1ccc2[nH]cc(CCNC(=O)c3sc(-c4ccc(C)cc4)nc3C)c2c1", "note": "[Example D32, N-(2-(5-methoxy-1H-indol-3-yl)ethyl)-4-methyl-2-p-tolylthiazole-5-carboxamide]", "EC50": 50}
{"smiles": "O=C(NCCc1c[nH]c2ccc(Cl)cc12)c1noc(Cc2ccccc2F)n1", "note": "[Example D170, N-(2-(5-chloro-1H-indol-3-yl)ethyl)-5-(2-fluorobenzyl)-1,2,4-oxadiazole-3-carboxamide]", "EC50": 45}
{"smiles": "COc1ccc(-c2cc(C(=O)NCCc3c[nH]c4ccc(Cl)cc34)no2)cc1", "note": "[Example D49, N-(2-(5-chloro-1H-indol-3-yl)ethyl)-5-(4-methoxyphenyl)isoxazole-3-carboxamide]", "EC50": 140}
{"smiles": "O=C(NCCc1c[nH]c2ccc(Cl)cc12)N1CCC(Cc2ccccc2)C1", "note": "(stereo not drawn) [Example D75, 3-benzyl-N-(2-(5-chloro-1H-indol-3-yl)ethyl)pyrrolidine-1-carboxamide]", "EC50": 534}
{"smiles": "O=C(NCCc1c[nH]c2ccc(F)cc12)c1cc(Cc2cccc(F)c2)on1", "note": "[Example D28, N-(2-(5-fluoro-1H-indol-3-yl)ethyl)-5-(3-fluorobenzyl)isoxazole-3-carboxamide]", "EC50": 41}
{"smiles": "O=C(NCCc1c[nH]c2ccc(Cl)cc12)c1cc(-c2cccs2)on1", "note": "[Example D16, N-(2-(5-chloro-1H-indol-3-yl)ethyl)-5-(thiophen-2-yl)isoxazole-3-carboxamide]", "EC50": 21}
{"smiles": "O=C(NCc1c[nH]c2ccc(Cl)cc12)c1cc(Cc2cccc(F)c2)on1", "note": "[Example D34, N-((5-chloro-1H-indol-3-yl)methyl)-5-(3-fluorobenzyl)isoxazole-3-carboxamide]", "EC50": 59}
{"smiles": "CC(c1ccccc1)N1CCC(C(=O)NCCc2c[nH]c3ccc(Cl)cc23)C1=O", "note": "(single isomer, unassigned) [D156 Fraction A, N-(2-(5-chloro-1H-indol-3-yl)ethyl)-2-oxo-1-(1-phenylethyl)pyrrolidine-3-carboxamide]", "EC50": 819}
{"smiles": "Cc1ccc(-c2nc(C)c(C(=O)NCCc3c[nH]c4ccc(F)cc34)s2)cc1", "note": "[Example D37, N-(2-(5-fluoro-1H-indol-3-yl)ethyl)-4-methyl-2-p-tolylthiazole-5-carboxamide]", "EC50": 61}
{"smiles": "CCCc1cc(-c2nc(C)c(C(=O)NCCc3c[nH]c4ccccc34)s2)ccn1", "note": "[Example D33, N-(2-(1H-indol-3-yl)ethyl)-4-methyl-2-(2-propylpyridin-4-yl)thiazole-5-carboxamide]", "EC50": 56}
{"smiles": "O=C(NCCc1c[nH]c2ccc(Cl)cc12)c1noc(Cc2ccccc2Cl)n1", "note": "[Example D191, N-(2-(5-chloro-1H-indol-3-yl)ethyl)-5-(2-chlorobenzyl)-1,2,4-oxadiazole-3-carboxamide]", "EC50": 25}
{"tested_on": "M17-TAU P301L cells", "test": "TAU cytotoxicity assay: LDH leakage of retinoic acid incubated M17-TAU P301L cells", "format": "cell-based, human", "conditions": "reduction of LDH activity of retinoic acid incubated M17-TAU P301L cells, 7 days", "method_in_brief": "as §1", "units": {"EC50": "nM"}}
{"smiles": "CC(c1ccccc1)N1CCC(C(=O)NCCc2c[nH]c3ccc(Cl)cc23)C1=O", "note": "(single isomer, unassigned) [D156 Fraction B, N-(2-(5-chloro-1H-indol-3-yl)ethyl)-2-oxo-1-(1-phenylethyl)pyrrolidine-3-carboxamide]", "EC50": 1180}
